Paper PMC9848257, “Design and synthesis of novel rigid dibenzo[b,f]azepines through ring closure technique as promising anticancer candidates against leukaemia and acting as selective topoisomerase II inhibitors and DNA intercalators” (Journal of Enzyme Inhibition and Medicinal Chemistry, 2023)

Columns and labels:
Format in all cases: cell-based
CCRF-CEM = experiment: NCI-60 one-dose screen, CCRF-CEM; conditions: Homo sapiens, leukaemia, single dose 10 μM, read-out: Growth inhibition %
HL-60(TB) = experiment: NCI-60 one-dose screen, HL-60(TB); conditions: Homo sapiens, leukaemia, single dose 10 μM, read-out: Growth inhibition %
K-562 = experiment: NCI-60 one-dose screen, K-562; conditions: Homo sapiens, K562; K-562, leukaemia; single dose 10 μM; read-out: Growth inhibition %
A549-ATCC = experiment: NCI-60 one-dose screen, A549-ATCC; conditions: Homo sapiens, non-small cell lung cancer, single dose 10 μM, read-out: Growth inhibition %
HOP-62 = experiment: NCI-60 one-dose screen, HOP-62; conditions: Homo sapiens; HOP-62, non-small cell lung cancer; single dose 10 μM; read-out: Growth inhibition %
NCI-H226 = experiment: NCI-60 one-dose screen, NCI-H226; conditions: Homo sapiens; NCI-H226, non-small cell lung cancer; single dose 10 μM; read-out: Growth inhibition %
NCI-H23 = experiment: NCI-60 one-dose screen, NCI-H23; conditions: Homo sapiens; NCI-H23, non-small cell lung cancer; single dose 10 μM; read-out: Growth inhibition %
NCI-H322M = experiment: NCI-60 one-dose screen, NCI-H322M; conditions: Homo sapiens, non-small cell lung cancer, single dose 10 μM, read-out: Growth inhibition %
COLO 205 = experiment: NCI-60 one-dose screen, COLO 205; conditions: Homo sapiens; COLO 205, colon cancer; single dose 10 μM; read-out: Growth inhibition %
HCT-15 = experiment: NCI-60 one-dose screen, HCT-15; conditions: Homo sapiens; HCT-15, colon cancer; single dose 10 μM; read-out: Growth inhibition %
HT29 = experiment: NCI-60 one-dose screen, HT29; conditions: Homo sapiens, HT-29; HT29, colon cancer; single dose 10 μM; read-out: Growth inhibition %
KM12 = experiment: NCI-60 one-dose screen, KM12; conditions: Homo sapiens; KM12, colon cancer; single dose 10 μM; read-out: Growth inhibition %
SW-620 = experiment: NCI-60 one-dose screen, SW-620; conditions: Homo sapiens; SW-620, colon cancer; single dose 10 μM; read-out: Growth inhibition %
SF-268 = experiment: NCI-60 one-dose screen, SF-268; conditions: Homo sapiens; SF-268, CNS cancer; single dose 10 μM; read-out: Growth inhibition %
SF-295 = experiment: NCI-60 one-dose screen, SF-295; conditions: Homo sapiens; SF-295, CNS cancer; single dose 10 μM; read-out: Growth inhibition %
SF-539 = experiment: NCI-60 one-dose screen, SF-539; conditions: Homo sapiens; SF-539, CNS cancer; single dose 10 μM; read-out: Growth inhibition %
LOX IMVI = experiment: NCI-60 one-dose screen, LOX IMVI; conditions: Homo sapiens, melanoma, single dose 10 μM, read-out: Growth inhibition %
MALME-3M = experiment: NCI-60 one-dose screen, MALME-3M; conditions: Homo sapiens, melanoma, single dose 10 μM, read-out: Growth inhibition %
M14 = experiment: NCI-60 one-dose screen, M14; conditions: Homo sapiens; M14, melanoma; single dose 10 μM; read-out: Growth inhibition %
SK-MEL-2 = experiment: NCI-60 one-dose screen, SK-MEL-2; conditions: Homo sapiens; SK-MEL-2, melanoma; single dose 10 μM; read-out: Growth inhibition %
SK-MEL-5 = experiment: NCI-60 one-dose screen, SK-MEL-5; conditions: Homo sapiens; SK-MEL-5, melanoma; single dose 10 μM; read-out: Growth inhibition %
UACC-257 = experiment: NCI-60 one-dose screen, UACC-257; conditions: Homo sapiens; UACC-257, melanoma; single dose 10 μM; read-out: Growth inhibition %
OVCAR-3 = experiment: NCI-60 one-dose screen, OVCAR-3; conditions: Homo sapiens; OVCAR-3, ovarian cancer; single dose 10 μM; read-out: Growth inhibition %
OVCAR-4 = experiment: NCI-60 one-dose screen, OVCAR-4; conditions: Homo sapiens; OVCAR-4, ovarian cancer; single dose 10 μM; read-out: Growth inhibition %
OVCAR-8 = experiment: NCI-60 one-dose screen, OVCAR-8; conditions: Homo sapiens; OVCAR-8, ovarian cancer; single dose 10 μM; read-out: Growth inhibition %
SK-OV-3 = experiment: NCI-60 one-dose screen, SK-OV-3; conditions: Homo sapiens; SK-OV-3, ovarian cancer; single dose 10 μM; read-out: Growth inhibition %
A498 = experiment: NCI-60 one-dose screen, A498; conditions: Homo sapiens; A498, renal cancer; single dose 10 μM; read-out: Growth inhibition %
ACHN = experiment: NCI-60 one-dose screen, ACHN; conditions: Homo sapiens, renal cancer, single dose 10 μM, read-out: Growth inhibition %
CAKI-1 = experiment: NCI-60 one-dose screen, CAKI-1; conditions: Homo sapiens; CAKI-1, renal cancer; single dose 10 μM; read-out: Growth inhibition %
RXF 393 = experiment: NCI-60 one-dose screen, RXF 393; conditions: Homo sapiens; RXF 393, renal cancer; single dose 10 μM; read-out: Growth inhibition %
DU-145 = experiment: NCI-60 one-dose screen, DU-145; conditions: Homo sapiens; DU-145, prostate cancer; single dose 10 μM; read-out: Growth inhibition %
MDA-MB-231-ATCC = experiment: NCI-60 one-dose screen, MDA-MB-231-ATCC; conditions: Homo sapiens, breast cancer, single dose 10 μM, read-out: Growth inhibition %
HS 578 T = experiment: NCI-60 one-dose screen, HS 578 T; conditions: Homo sapiens, breast cancer, single dose 10 μM, read-out: Growth inhibition %
T-47D = experiment: NCI-60 one-dose screen, T-47D; conditions: Homo sapiens, T47D, breast cancer, single dose 10 μM, read-out: Growth inhibition %
MDA-MB-468 = experiment: NCI-60 one-dose screen, MDA-MB-468; conditions: Homo sapiens; MDA-MB-468, breast cancer; single dose 10 μM; read-out: Growth inhibition %

Clc1ccc(-c2nnc(N3c4ccccc4C=Cc4ccccc43)o2)cc1 [Compound 5c, 2-(4-Chlorophenyl)-5-(5H-dibenzo[b,f]azepin-5-yl)-1,3,4-oxadiazole]
inhibition at 10 µM (CCRF-CEM): 30.4%
inhibition at 10 µM (HL-60(TB)): 38.1%
inhibition at 10 µM (K-562): 54%
inhibition at 10 µM (A549-ATCC): 20.3%
inhibition at 10 µM (HOP-62): 15.4%
inhibition at 10 µM (NCI-H226): 27.5%
inhibition at 10 µM (NCI-H23): < 10%
inhibition at 10 µM (NCI-H322M): 10.5%
inhibition at 10 µM (COLO 205): < 10%
inhibition at 10 µM (HCT-15): 63.5%
inhibition at 10 µM (HT29): < 10%
inhibition at 10 µM (KM12): 18.5%
inhibition at 10 µM (SW-620): < 10%
inhibition at 10 µM (SF-268): 24.7%
inhibition at 10 µM (SF-295): 29.6%
inhibition at 10 µM (SF-539): < 10%
inhibition at 10 µM (LOX IMVI): 35.7%
inhibition at 10 µM (MALME-3M): < 10%
inhibition at 10 µM (M14): < 10%
inhibition at 10 µM (SK-MEL-2): < 10%
inhibition at 10 µM (SK-MEL-5): 48%
inhibition at 10 µM (UACC-257): < 10%
inhibition at 10 µM (OVCAR-3): < 10%
inhibition at 10 µM (OVCAR-4): 22.1%
inhibition at 10 µM (OVCAR-8): 24%
inhibition at 10 µM (SK-OV-3): < 10%
inhibition at 10 µM (A498): 12.9%
inhibition at 10 µM (ACHN): 15.5%
inhibition at 10 µM (CAKI-1): 28.5%
inhibition at 10 µM (RXF 393): 17.9%
inhibition at 10 µM (DU-145): < 10%
inhibition at 10 µM (MDA-MB-231-ATCC): 19.8%
inhibition at 10 µM (HS 578 T): < 10%
inhibition at 10 µM (T-47D): < 10%
inhibition at 10 µM (MDA-MB-468): 16.7%

O=C(NNC(=O)N1c2ccccc2C=Cc2ccccc21)c1ccc(Cl)cc1 [Compound 4c, N′-(4-Chlorobenzoyl)-5H-dibenzo[b,f]azepine-5-carbohydrazide]
inhibition at 10 µM (CCRF-CEM): < 10%
inhibition at 10 µM (HL-60(TB)): < 10%
inhibition at 10 µM (K-562): < 10%
inhibition at 10 µM (A549-ATCC): < 10%
inhibition at 10 µM (HOP-62): < 10%
inhibition at 10 µM (NCI-H226): < 10%
inhibition at 10 µM (NCI-H23): < 10%
inhibition at 10 µM (NCI-H322M): < 10%
inhibition at 10 µM (COLO 205): < 10%
inhibition at 10 µM (HCT-15): < 10%
inhibition at 10 µM (HT29): < 10%
inhibition at 10 µM (KM12): < 10%
inhibition at 10 µM (SW-620): < 10%
inhibition at 10 µM (SF-268): < 10%
inhibition at 10 µM (SF-295): < 10%
inhibition at 10 µM (SF-539): < 10%
inhibition at 10 µM (LOX IMVI): < 10%
inhibition at 10 µM (MALME-3M): < 10%
inhibition at 10 µM (M14): < 10%
inhibition at 10 µM (SK-MEL-2): < 10%
inhibition at 10 µM (SK-MEL-5): < 10%
inhibition at 10 µM (UACC-257): 12.6%
inhibition at 10 µM (OVCAR-3): < 10%
inhibition at 10 µM (OVCAR-4): < 10%
inhibition at 10 µM (OVCAR-8): < 10%
inhibition at 10 µM (SK-OV-3): < 10%
inhibition at 10 µM (A498): < 10%
inhibition at 10 µM (ACHN): 13.3%
inhibition at 10 µM (CAKI-1): < 10%
inhibition at 10 µM (RXF 393): < 10%
inhibition at 10 µM (DU-145): < 10%
inhibition at 10 µM (MDA-MB-231-ATCC): < 10%
inhibition at 10 µM (HS 578 T): < 10%
inhibition at 10 µM (T-47D): < 10%
inhibition at 10 µM (MDA-MB-468): < 10%

C1=Cc2ccccc2N(c2nnc(-c3ccc4ccccc4c3)o2)c2ccccc21 [Compound 5f, 2-(5 h-Dibenzo[b,f]azepin-5-yl)-5-(naphthalen-2-yl)-1,3,4-oxadiazole]
inhibition at 10 µM (CCRF-CEM): 28.2%
inhibition at 10 µM (HL-60(TB)): < 10%
inhibition at 10 µM (K-562): 34%
inhibition at 10 µM (A549-ATCC): 28.2%
inhibition at 10 µM (HOP-62): < 10%
inhibition at 10 µM (NCI-H226): 21.4%
inhibition at 10 µM (NCI-H23): 12.4%
inhibition at 10 µM (NCI-H322M): 9.52%
inhibition at 10 µM (COLO 205): < 10%
inhibition at 10 µM (HCT-15): 57%
inhibition at 10 µM (HT29): < 10%
inhibition at 10 µM (KM12): < 10%
inhibition at 10 µM (SW-620): < 10%
inhibition at 10 µM (SF-268): 21.9%
inhibition at 10 µM (SF-295): 19.9%
inhibition at 10 µM (SF-539): < 10%
inhibition at 10 µM (LOX IMVI): 18.7%
inhibition at 10 µM (MALME-3M): < 10%
inhibition at 10 µM (M14): < 10%
inhibition at 10 µM (SK-MEL-2): < 10%
inhibition at 10 µM (SK-MEL-5): 15.8%
inhibition at 10 µM (UACC-257): < 10%
inhibition at 10 µM (OVCAR-3): 2.22%
inhibition at 10 µM (OVCAR-4): < 10%
inhibition at 10 µM (OVCAR-8): 9.31%
inhibition at 10 µM (SK-OV-3): < 10%
inhibition at 10 µM (A498): < 10%
inhibition at 10 µM (ACHN): 10.5%
inhibition at 10 µM (CAKI-1): 33.1%
inhibition at 10 µM (RXF 393): 10.4%
inhibition at 10 µM (DU-145): < 10%
inhibition at 10 µM (MDA-MB-231-ATCC): < 10%
inhibition at 10 µM (HS 578 T): < 10%
inhibition at 10 µM (T-47D): 18.3%
inhibition at 10 µM (MDA-MB-468): 11.1%
